Measurements published in patent US20260184707A1, “PHARMACEUTICAL COMPOUNDS FOR THE TREATMENT OF COMPLEMENT MEDIATED DISORDERS” (ALEXION PHARMACEUTICALS, INC., priority 2022, published 2026).

Target: T1, Human complement C1s enzyme (Homo sapiens, UniProt P09871)
T1 construct: purified from human serum, Complement Technology, Inc; purchased Complement Technology, Inc; host or cells: human serum (plasma-derived native protein)
T1 sequence (P09871 438-688 limits assumed): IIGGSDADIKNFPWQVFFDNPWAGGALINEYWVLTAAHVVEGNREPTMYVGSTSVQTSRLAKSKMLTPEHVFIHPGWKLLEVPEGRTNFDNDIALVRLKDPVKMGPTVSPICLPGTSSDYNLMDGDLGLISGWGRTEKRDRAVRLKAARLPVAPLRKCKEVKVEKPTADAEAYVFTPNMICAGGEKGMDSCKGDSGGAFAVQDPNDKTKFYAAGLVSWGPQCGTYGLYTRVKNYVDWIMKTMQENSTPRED
T1 sequence (P09871 16-437 partner limits assumed): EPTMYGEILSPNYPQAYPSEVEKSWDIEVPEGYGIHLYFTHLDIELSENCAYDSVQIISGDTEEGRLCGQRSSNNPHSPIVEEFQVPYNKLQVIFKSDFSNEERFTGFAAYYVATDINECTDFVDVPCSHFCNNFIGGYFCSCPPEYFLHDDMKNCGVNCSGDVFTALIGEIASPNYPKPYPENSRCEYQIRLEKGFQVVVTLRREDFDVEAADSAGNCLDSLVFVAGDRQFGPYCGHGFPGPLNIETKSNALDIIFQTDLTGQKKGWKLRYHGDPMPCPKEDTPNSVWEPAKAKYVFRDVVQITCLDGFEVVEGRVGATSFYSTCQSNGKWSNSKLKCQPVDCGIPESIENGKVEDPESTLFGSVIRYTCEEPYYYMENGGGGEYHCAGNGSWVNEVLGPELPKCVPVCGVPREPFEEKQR
Assay: Human C1s enzyme assay
Format: biochemical
Details: human complement C1s enzyme 1.16 nM, substrate Z-L-Lys-SBzl, A405; read-out: IC50 (Stars)
Protocol: The […] values of the compounds of Table 1 were determined with the human C1s enzyme assay described below. Other standard complement assays are also available.
Human complement C1s enzyme (purified from human serum, Complement Technology, Inc.) at 1.16 nM final concentration was incubated with test compound at various concentrations for 5 min at room temperature in 50 mM Tris, 1 M NaCl, pH 7.5. A synthetic substrate Z-L-Lys-SBzl and DTNB (Ellman's reagent) were added to final concentrations of 100 μM each. Absorbance at 405 nm (A405) was recorded at 30 second intervals for […] using a microplate spectrophotometer. IC values were calculated by nonlinear regression of complement C1s reaction rates as a function of test compound concentration.
[…]; ND indicates a compound for which the IC50 value is not determined.

| Structure (SMILES) | IC50 [nM] |
| --- | --- |
| COc1ccc(CCCNc2cnc(-c3ccccc3)n(CC(=O)NCc3cc4cnccc4[nH]3)c2=O)cc1 [Compound 45, N-((1H-pyrrolo[3,2-c]pyridin-2-yl)methyl)-2-(5-((3-(4-methoxyphenyl)propyl)amino)-6-oxo-2-phenylpyrimidin-1(6H)-yl)acetamide] | < 100 |
| N#Cc1ccc(CCCNc2cnc(-c3ccccc3)n(CC(=O)NCc3cc4cnccc4[nH]3)c2=O)cc1 [Compound 48, N-((1H-pyrrolo[3,2-c]pyridin-2-yl)methyl)-2-(5-((3-(4-cyanophenyl)propyl)amino)-6-oxo-2-phenylpyrimidin-1(6H)-yl)acetamide] | < 100 |
| O=C(Cn1c(-c2ccccc2)ncc(NC(=O)C2CCC(Oc3ccccc3)CC2)c1=O)NCc1cc2cnccc2[nH]1 (stereo not drawn) [Compound 49, N-[6-oxo-1-[2-oxo-2-(1H-pyrrolo[3,2-c]pyridin-2-ylmethylamino)ethyl]-2-phenyl-pyrimidin-5-yl]-4-phenoxy-cyclohexanecarboxamide] | < 100 |
| O=C(Cn1c(-c2ccccc2)ncc(NC(=O)c2ccc(Oc3ccc(C(F)(F)F)cc3)cc2)c1=O)NCc1cc2cnccc2[nH]1 [Compound 50, N-(1-(2-(((1H-pyrrolo[3,2-c]pyridin-2-yl)methyl)amino)-2-oxoethyl)-6-oxo-2-phenyl-1,6-dihydropyrimidin-5-yl)-4-(4-(trifluoromethyl)phenoxy)-benzamide] | < 100 |
| O=C(Cn1c(-c2ccccc2)ncc(NC(=O)c2ccc(Oc3ccc(F)cc3)cc2)c1=O)NCc1cc2cnccc2[nH]1 [Compound 52, N-(1-(2-(((1H-pyrrolo[3,2-c]pyridin-2-yl)methyl)amino)-2-oxoethyl)-6-oxo-2-phenyl-1,6-dihydropyrimidin-5-yl)-4-(4-fluorophenoxy)benzamide] | < 100 |
| O=C(Cn1c(-c2ccccc2)ncc(NC(=O)c2ccc(Oc3cccnc3)cc2)c1=O)NCc1cc2cnccc2[nH]1 [Compound 53, N-(1-(2-(((1H-pyrrolo[3,2-c]pyridin-2-yl)methyl)amino)-2-oxoethyl)-6-oxo-2-phenyl-1,6-dihydropyrimidin-5-yl)-4-(pyridin-3-yloxy)benzamide] | < 100 |
| O=C(Cn1c(-c2ccccc2)ncc(NC(=O)c2ccc(-c3cccs3)cc2)c1=O)NCc1cc2cnccc2[nH]1 [Compound 56, N-(1-(2-(((1H-pyrrolo[3,2-c]pyridin-2-yl)methyl)amino)-2-oxoethyl)-6-oxo-2-phenyl-1,6-dihydropyrimidin-5-yl)-4-(thiophen-2-yl)benzamide] | < 100 |
| O=C(Cn1c(-c2ccccc2)ncc(NC(=O)c2cccc(Oc3ccccc3)c2)c1=O)NCc1cc2cnccc2[nH]1 [Compound 58, N-(1-(2-(((1H-pyrrolo[3,2-c]pyridin-2-yl)methyl)amino)-2-oxoethyl)-6-oxo-2-phenyl-1,6-dihydropyrimidin-5-yl)-3-phen-oxybenzamide] | < 100 |
| C[C@@H](Nc1cnc(-c2ccccc2)n(CC(=O)NCc2cc3cnccc3[nH]2)c1=O)c1ccc(Oc2ccccc2)cc1 [Compound 61, (R)—N-((1H-pyrrolo[3,2-c]pyridine-2-yl)methyl)-2-(6-oxo-5-((1-(4-phenoxyphenyl)ethyl)amino)-2-phenylpyrimidin-1(6H)-yl)acetamide] | < 100 |
| O=C(Cn1c(-c2ccccc2)cnc(NCc2ccc(Oc3ccccc3)cc2)c1=O)NCc1cc2cnccc2[nH]1 [Compound 63, N-((1H-pyrrolo[3,2-c]pyridine-2-yl)methyl)-2-(2-oxo-3-((4-phenoxybenzyl)amino)-6-phenylpyrazin-1(2H)-yl)acetamide] | < 100 |
| O=C(Cn1c(-c2ccccc2)ncc(NCCCc2ccc3sc4ccccc4c3c2)c1=O)NCc1cc2cnccc2[nH]1 [Compound 64, N-((1H-pyrrolo[3,2-c]pyridin-2-yl)methyl)-2-(5-((3-(dibenzo [b,d]thiophen-2-yl)propyl)-amino)-6-oxo-2-phenylpyrimi-din-1(6H)-yl)acetamide] | < 100 |
| NS(=O)(=O)COc1ccc(-c2ncc(NCCCc3ccccc3)c(=O)n2CC(=O)NCc2cc3cnccc3[nH]2)cc1 [Compound 67, N-((1H-pyrrolo[3,2-c]pyridine-2-yl)methyl)-2-(6-oxo-5-((3-phenylpropyl)amino)-2-(4-(sulfamoylmethoxy)phenyl)pyrimidin-1(6H)-yl)acetamide] | < 100 |

Continued, values first:

| IC50 [nM] | Structure (SMILES) |
| --- | --- |
| < 100 | O=C(Cn1c(-c2ccccc2)ncc(NCCCc2ccc(F)cc2)c1=O)NCc1cc2cnccc2[nH]1 [Compound 46, N-((1H-pyrrolo[3,2-c]pyridin-2-yl)methyl)-2-(5-((3-(4-fluorophenyl)propyl)amino)-6-oxo-2-phenylpyrimidin-1(6H)-yl)acetamide] |
| > 1000 | C[C@H](NC(=O)Cn1c(-c2ccccc2)cnc(NCCCc2ccccc2)c1=O)c1cc2cnccc2[nH]1 [Compound 47, (S)-N-(1-(1H-pyrrolo[3,2-c]pyridin-2-yl)ethyl)-2-(2-oxo-6-phenyl-3-((3-phenylpropyl)-amino)pyrazin-1(2H)-yl)-acetamide] |
| < 100 | O=C(Cn1c(-c2ccccc2)ncc(NC(=O)c2ccc(Oc3ccc(Br)cc3)cc2)c1=O)NCc1cc2cnccc2[nH]1 [Compound 51, N-(1-(2-(((1H-pyrrolo[3,2-c]pyridin-2-yl)methyl)amino)-2-oxoethyl)-6-oxo-2-phenyl-1,6-dihydropyrimidin-5-yl)-4-(4-bromophenoxy)benzamide] |
| < 100 | O=C(Cn1c(-c2ccccc2)ncc(NC(=O)c2ccc(Oc3ccc(F)cc3F)cc2)c1=O)NCc1cc2cnccc2[nH]1 [Compound 55, N-(1-(2-(((1H-pyrrolo[3,2-c]pyridin-2-yl)methyl)amino)-2-oxoethyl)-6-oxo-2-phenyl-1,6-dihydropyrimidin-5-yl)-4-(2,4-difluorophenoxy)benzamide] |
| < 100 | O=C(Cn1c(-c2ccccc2)ncc(NC(=O)c2ccc(Oc3ccccc3)o2)c1=O)NCc1cc2cnccc2[nH]1 [Compound 57, N-(1-(2-(((1H-pyrrolo[3,2-c]pyridin-2-yl)methyl)amino)-2-oxoethyl)-6-oxo-2-phenyl-1,6-dihydropyrimidin-5-yl)-5-phen-oxyfuran-2-carboxamide] |
| < 100 | O=C(Cn1c(-c2ccccc2)ncc(NC(=O)c2ccc(-n3cccc3)cc2)c1=O)NCc1cc2cnccc2[nH]1 [Compound 59, N-(1-(2-(((1H-pyrrolo[3,2-c]pyridin-2-yl)methyl)amino)-2-oxoethyl)-6-oxo-2-phenyl-1,6-dihydropyrimidin-5-yl)-4-(1H-pyrrol-1-yl)benzamide] |
| < 100 | O=C(Cn1c(-c2ccccc2)cnc(NCc2ccc(-c3ccccc3)cc2)c1=O)NCc1cc2cnccc2[nH]1 [Compound 60, N-((1H-pyrrolo[3,2-c]pyridin-2-yl)methyl)-2-(3-(([1,1′-biphenyl]-4-ylmethyl)amino)-2-oxo-6-phenylpyrazin-1(2H)-yl)acetamide] |
| < 100 | C[C@H](Nc1cnc(-c2ccccc2)n(CC(=O)NCc2cc3cnccc3[nH]2)c1=O)c1ccc(Oc2ccccc2)cc1 [Compound 62, (S)-N-((1H-pyrrolo[3,2-c]pyr-idin-2-yl)methyl)-2-(6-oxo-5-((1-(4-phenoxyphenyl)ethyl)-amino)-2-phenylpyrimidin-1(6H)-yl)acetamide] |
| 100 to 1000 | O=C(Cn1c(-c2ccccc2)ncc(N2CC3CCC2C3)c1=O)NCc1cc2cnccc2[nH]1 (stereo not drawn) [Compound 65, N-((1H-pyrrolo[3,2-c]pyridin-2-yl)methyl)-2-(5-(2-azabicyclo [2.2.1]heptan-2-yl)-6-oxo-2-phenylpyrimidin-1(6H)-yl)-acetamide] |
| < 100 | CP(=O)(O)c1ccc(-c2ncc(NCCCc3ccccc3)c(=O)n2CC(=O)NCc2cc3cnccc3[nH]2)cc1 [Compound 68, (4-(1-(2-(((1H-pyrrolo[3,2-c]pyridine-2-yl)methyl)amino)-2-oxoethyl)-6-oxo-5-((3-phenylpropyl)amino)-1,6-dihydropyrimidin-2-yl)phenyl)(methyl)phosphinic acid] |
| < 100 | CS(=O)(=O)c1ccc(-c2ncc(NCCCc3ccccc3)c(=O)n2CC(=O)NCc2cc3cnccc3[nH]2)cc1 [Compound 69, N-((1H-pyrrolo[3,2-c]pyridine-2-yl)methyl)-2-(2-(4-(methylsulfonyl)phenyl)-6-oxo-5-((3-phenylpropyl)amino)pyrimidin-1(6H)-yl)acetamide] |
| 100 to 1000 | O=C(Cn1c(-c2ccccc2)ncc(Br)c1=O)NCc1cc2cnccc2[nH]1 [Compound 71, N-((1H-pyrrolo[3,2-c]pyridin-2-yl)methyl)-2-(5-bromo-6-oxo-2-phenylpyrimidin-1(6H)-yl)acetamide] |
